According to PubChem BioAssay (NCI):
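Briefly, cells in 96-well plates were exposed to five compound concentrations for 48 h, and endpoints were estimated by linear interpolation. Here, GI50 denotes the concentration required for 50% inhibition of growth. TGI denotes the concentration required for complete inhibition of growth.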

Assays:
Test in all cases: inhibition of tumour cell growth, NCI panel, 48 h
SF-295 CNS = test system: SF-295 CNS
NCI-H226 lung = test system: NCI-H226 lung
CCRF-CEM leukemia = test system: CCRF-CEM leukemia
HS 578T breast = test system: HS 578T breast
HCC-2998 colon = test system: HCC-2998 colon
MDA-MB-435 = test system: MDA-MB-435
NCI-H23 lung = test system: NCI-H23 lung
LOX IMVI melanoma = test system: LOX IMVI melanoma
UACC-257 melanoma = test system: UACC-257 melanoma
U251 CNS = test system: U251 CNS
HCT-116 colon = test system: HCT-116 colon
OVCAR-8 ovarian = test system: OVCAR-8 ovarian
SN12C renal = test system: SN12C renal
NCI/ADR-RES ovarian = test system: NCI/ADR-RES ovarian
ACHN renal = test system: ACHN renal
MDA-MB-231 breast = test system: MDA-MB-231 breast
BT-549 breast = test system: BT-549 breast
HL-60(TB) leukemia = test system: HL-60(TB) leukemia
NCI-H460 lung = test system: NCI-H460 lung
KM12 colon = test system: KM12 colon
K-562 leukemia = test system: K-562 leukemia
OVCAR-5 ovarian = test system: OVCAR-5 ovarian
NCI-H522 lung = test system: NCI-H522 lung
SW-620 colon = test system: SW-620 colon
TK-10 renal = test system: TK-10 renal
UO-31 renal = test system: UO-31 renal
RPMI-8226 leukemia = test system: RPMI-8226 leukemia
OVCAR-4 ovarian = test system: OVCAR-4 ovarian
T-47D breast = test system: T-47D breast
IGROV1 ovarian = test system: IGROV1 ovarian
HCT-15 colon = test system: HCT-15 colon
A498 renal = test system: A498 renal
HOP-62 NSCLC = test system: HOP-62 NSCLC
A549 NSCLC = test system: A549 NSCLC
EKVX NSCLC = test system: EKVX NSCLC
SR leukemia = test system: SR leukemia
CAKI-1 renal = test system: CAKI-1 renal
MCF7 breast = test system: MCF7 breast
SNB-75 CNS = test system: SNB-75 CNS
PC-3 prostate = test system: PC-3 prostate
OVCAR-3 ovarian = test system: OVCAR-3 ovarian
SK-OV-3 ovarian = test system: SK-OV-3 ovarian
HOP-92 NSCLC = test system: HOP-92 NSCLC
HT29 colon = test system: HT29 colon
RXF 393 renal = test system: RXF 393 renal
SK-MEL-2 melanoma = test system: SK-MEL-2 melanoma
SK-MEL-5 melanoma = test system: SK-MEL-5 melanoma
MOLT-4 leukemia = test system: MOLT-4 leukemia
SK-MEL-28 melanoma = test system: SK-MEL-28 melanoma
SNB-19 CNS = test system: SNB-19 CNS
DU-145 prostate = test system: DU-145 prostate
SF-268 CNS = test system: SF-268 CNS
MALME-3M melanoma = test system: MALME-3M melanoma
UACC-62 melanoma = test system: UACC-62 melanoma
SF-539 CNS = test system: SF-539 CNS
786-0 renal = test system: 786-0 renal

Cl.[Pt].[c-]1ccccc1-c1ccccn1.c1ccc(P(c2ccccc2)C([PH+](c2ccccc2)c2ccccc2)[PH+](c2ccccc2)c2ccccc2)cc1
GI50 (SF-295 CNS): 2.48 µM | TGI (SF-295 CNS): 12.4 µM | GI50 (NCI-H226 lung): 1.88 µM | TGI (NCI-H226 lung): 9.81 µM | GI50 (CCRF-CEM leukemia): 2.4 µM | TGI (CCRF-CEM leukemia): > 100 µM | GI50 (HS 578T breast): 2.22 µM | TGI (HS 578T breast): 20.8 µM | GI50 (HCC-2998 colon): 3.64 µM | TGI (HCC-2998 colon): 18.6 µM | GI50 (MDA-MB-435): 2.45 µM | TGI (MDA-MB-435): 6.65 µM | GI50 (NCI-H23 lung): 1.19 µM | TGI (NCI-H23 lung): 18.4 µM | GI50 (LOX IMVI melanoma): 1.65 µM | TGI (LOX IMVI melanoma): 4.6 µM | GI50 (UACC-257 melanoma): 3.26 µM | TGI (UACC-257 melanoma): 38 µM | GI50 (U251 CNS): 0.577 µM | TGI (U251 CNS): 2.69 µM | GI50 (HCT-116 colon): 1.58 µM | TGI (HCT-116 colon): 7.11 µM | GI50 (OVCAR-8 ovarian): 0.853 µM | TGI (OVCAR-8 ovarian): > 100 µM | GI50 (SN12C renal): 0.942 µM | TGI (SN12C renal): 7.03 µM | GI50 (NCI/ADR-RES ovarian): 5.21 µM | TGI (NCI/ADR-RES ovarian): 76.5 µM | GI50 (ACHN renal): 1.84 µM | TGI (ACHN renal): 11.5 µM | GI50 (MDA-MB-231 breast): 1.93 µM | TGI (MDA-MB-231 breast): 5.24 µM | GI50 (BT-549 breast): 2.09 µM | TGI (BT-549 breast): 6.82 µM | GI50 (HL-60(TB) leukemia): 1.1 µM | TGI (HL-60(TB) leukemia): 5.32 µM | GI50 (NCI-H460 lung): 2.29 µM | TGI (NCI-H460 lung): 10 µM | GI50 (KM12 colon): 2.48 µM | TGI (KM12 colon): 7.22 µM | GI50 (K-562 leukemia): 0.658 µM | TGI (K-562 leukemia): 13.6 µM | GI50 (OVCAR-5 ovarian): 2.9 µM | TGI (OVCAR-5 ovarian): 23.9 µM | GI50 (NCI-H522 lung): 1.57 µM | TGI (NCI-H522 lung): 7.14 µM | GI50 (SW-620 colon): 2.32 µM | TGI (SW-620 colon): 8.31 µM | GI50 (TK-10 renal): 1.74 µM | TGI (TK-10 renal): 15.5 µM | GI50 (UO-31 renal): 1.8 µM | TGI (UO-31 renal): 6.28 µM | GI50 (RPMI-8226 leukemia): 0.525 µM | TGI (RPMI-8226 leukemia): 3.66 µM | GI50 (OVCAR-4 ovarian): 0.662 µM | TGI (OVCAR-4 ovarian): 8.63 µM | GI50 (T-47D breast): 0.916 µM | TGI (T-47D breast): 19.5 µM | GI50 (IGROV1 ovarian): 2.18 µM | TGI (IGROV1 ovarian): > 100 µM | GI50 (HCT-15 colon): 2.81 µM | TGI (HCT-15 colon): > 100 µM | GI50 (A498 renal): 1.85 µM | TGI (A498 renal): 5.89 µM | GI50 (HOP-62 NSCLC): 2.39 µM | TGI (HOP-62 NSCLC): 9 µM | GI50 (A549 NSCLC): 1.32 µM | TGI (A549 NSCLC): 15.1 µM | GI50 (EKVX NSCLC): 2.3 µM | TGI (EKVX NSCLC): 62.2 µM | GI50 (SR leukemia): 1.21 µM | TGI (SR leukemia): 28.6 µM | GI50 (CAKI-1 renal): 1.81 µM | TGI (CAKI-1 renal): 13.1 µM | GI50 (MCF7 breast): 1.52 µM | TGI (MCF7 breast): 47 µM | GI50 (SNB-75 CNS): 1.64 µM | TGI (SNB-75 CNS): 23.5 µM | GI50 (PC-3 prostate): 0.683 µM | TGI (PC-3 prostate): 15.3 µM | GI50 (OVCAR-3 ovarian): 1.59 µM | TGI (OVCAR-3 ovarian): 7.99 µM | GI50 (SK-OV-3 ovarian): 3.57 µM | TGI (SK-OV-3 ovarian): > 100 µM | GI50 (HOP-92 NSCLC): 1.41 µM | TGI (HOP-92 NSCLC): 5.18 µM | GI50 (HT29 colon): 2.3 µM | TGI (HT29 colon): 8.13 µM | GI50 (RXF 393 renal): 1.48 µM | TGI (RXF 393 renal): 4.01 µM | GI50 (SK-MEL-2 melanoma): 2.09 µM | TGI (SK-MEL-2 melanoma): 5.92 µM | GI50 (SK-MEL-5 melanoma): 1.25 µM | TGI (SK-MEL-5 melanoma): 2.8 µM | GI50 (MOLT-4 leukemia): 2.13 µM | TGI (MOLT-4 leukemia): 11.6 µM | GI50 (SK-MEL-28 melanoma): 2.64 µM | TGI (SK-MEL-28 melanoma): 9.7 µM | GI50 (SNB-19 CNS): 0.764 µM | TGI (SNB-19 CNS): 21.2 µM | GI50 (DU-145 prostate): 1.9 µM | TGI (DU-145 prostate): 16.4 µM | GI50 (SF-268 CNS): 2.59 µM | TGI (SF-268 CNS): 20.9 µM | GI50 (MALME-3M melanoma): 0.42 µM | TGI (MALME-3M melanoma): 2.65 µM | GI50 (UACC-62 melanoma): 1.7 µM | TGI (UACC-62 melanoma): 4.75 µM | GI50 (SF-539 CNS): 1.54 µM | TGI (SF-539 CNS): 5.6 µM | GI50 (786-0 renal): 3.2 µM | TGI (786-0 renal): 14.4 µM
